According to PMC11342128, “Gold(I) and gold(III) carbene complexes from the marine betaine norzooanemonin: inhibition of thioredoxin reductase, antiproliferative and antimicrobial activity” (RSC Medicinal Chemistry, 2024):

Experiments:
Assay type in all cases: cell-based
[1] = tested on: A549 lung carcinoma cells; experiment: Antiproliferative activity, crystal violet assay; details: 72 h exposure, SD in parentheses, n = 3
Method: (§1) The antiproliferative potential of the gold–NHC complexes was determined in A549 lung carcinoma cells, MDA-MB-231 breast cancer cells, MCF-7 breast adenocarcinoma cells, and HT-29 colon carcinoma cells (Table 1). Vero E6 African green monkey kidney cells served as a reference cell line to check for possible tumour selectivity. Auranofin (AF) was used as an established reference drug.[15,17] […]
(§2) S2.2. Cytotoxicity and Anticancer Studies
(§3) Cell culture and cytotoxicity
(§4) Cell lines were sourced from DSMZ (German Collection of Microorganisms and Cell Cultures GmbH) and maintained through standard procedures in Dulbecco's Modified Eagle Medium (DMEM) supplemented with 10% fetal calf serum and 50 mg/L gentamycin. Antiproliferative effects were assessed using a well-established assay protocol. In brief, 100 μL volumes of A549 cells (13,243 cells per mL), HT-29 cells (14,657 cells per mL), MDA-MB-231 cells (6,613 cells per mL), or MCF-7 cells (6,917 cells per mL) were transferred into the wells of 96-well plates and incubated at 37°C/5% CO2 for 72 […]
(§5) Freshly prepared stock solutions of the compounds in DMSO were diluted with the respective cell culture medium to achieve graded concentrations (final concentration of DMSO: 0.1% v/v). After 72 hours (A549, HT-29) or 96 hours (MCF-7, MDA-MB-231) of exposure, the cell biomass was assessed through crystal violet staining, and the IC50 value was determined as the concentration causing 50% inhibition of cell proliferation compared to an untreated control. Results were calculated as the mean values of three independent experiments.

[2] = tested on: HT-29 colon carcinoma cells; experiment: Antiproliferative activity, crystal violet assay; details: 72 h exposure, SD in parentheses, n = 3
Method: as §1, §2, §3, §4, §5

[3] = tested on: MCF-7 breast adenocarcinoma cells; experiment: Antiproliferative activity, crystal violet assay; details: 96 h exposure, SD in parentheses, n = 3
Method: as §1, §2, §3, §4, §5

[4] = tested on: MDA-MB-231 breast cancer cells; experiment: Antiproliferative activity, crystal violet assay; details: 96 h exposure, SD in parentheses, n = 3
Method: as §1, §2, §3, §4, §5

[5] = tested on: Enterococcus faecium DSM20477; experiment: Antibacterial activity (MIC, curve fitting); details: Table S12; ± standard error of the mean
Method: (§6) The antibacterial activity of all gold complexes was assessed against six pathogenic bacterial strains, including two Gram-positive species, i.e. Enterococcus faecium and methicillin-resistant Staphylococcus aureus (MRSA), and four Gram-negative species, i.e. Acinetobacter baumannii, Escherichia coli, Klebsiella pneumoniae, and Pseudomonas aeruginosa. Minimum inhibitory concentrations (MICs) were determined using a curve-fitting technique.
(§7) S2.1. Antibacterial Studies
(§8) Bacterial cultures were prepared by overnight aerobic incubation at 37 °C. Gram-negative strains were cultivated in Müller Hinton broth supplemented with 1% glucose at pH 7.2, while Gram-positive strains were grown in Trypticase soy yeast extract medium (TSY) with a composition of 30 g/l trypticase soy broth, 3 g/l yeast extract, and pH 7.2. The cultures were adjusted to an OD600 of 0.001, resulting in a final starting OD600 of 0.0005 for the subsequent tests. For testing, 25 μL of the prepared culture was combined with 25 μL of serially diluted test compounds in 384 well plates, following established protocols for different strains. Screening was performed at compound concentrations of 0.5, 5, and 50 µM, and for selected compounds, growth inhibition curves were recorded using DMSO stock solutions […]
(§9) Positive control compounds, namely linezolid (for MRSA strains), ciprofloxacin (for E. faecium and E. coli), and amikacin (for P. aeruginosa), were included. The maximum DMSO concentration in the assay […]
(§10) After an 18-hour incubation at 37 °C under moist conditions, the optical density at 600 nm was measured using a Fusion Universal Microplate Analyser (Perkin–Elmer, Waltham, USA). The minimum inhibitory concentration (MIC) values, representing the […]
(§11) fitting with Sigma Plot. The bacterial strains used included Gram-negative strains: Escherichia coli (DSM 1116), A. baumannii (DSM30007), K. pneumoniae (DSM111678), and Pseudomonas aeruginosa PA7 (DSM 24068); and Gram-positive strains: E. faecium (DSM20477) and Staphylococcus aureus MRSA

[6] = tested on: Klebsiella pneumoniae DSM111678; experiment: Antibacterial activity (MIC, curve fitting); details: Table S12; ± standard error of the mean
Method: as §6, §7, §8, §9, §10, §11

A549 cells = experiment: Gold cellular uptake, HRCS-AAS; details: 2 μM, Fig. 5
Method: The amount of potential drug accumulated in the cell is often described as one of the critical factors for further biological effect. The significant difference in antiproliferative effect observed for dicarbene complexes 5a–c may be directly related to the amount of gold ions taken up by the treated cells. The cellular accumulation of these complexes was evaluated in the most sensitive cancer cell line A549. […] The gold content was further quantified using high-resolution continuum source atomic absorption spectroscopy (HRCS-AAS).
S2.4. Cellular uptake and metal quantification studies in A549 cells
Cellular uptake studies in A549 cells
For cellular accumulation studies, A549 lung carcinoma cells were seeded in 75 cm2 cell culture flasks, incubated with 10 ml DMEM/10% FCS cell culture medium at 37 °C in a 5% CO2 humidified atmosphere until they reached a confluence of 75-80%. The cells were treated with DMEM containing selected test compounds 3a and 3c dissolved in DMF (final DMF concentration: 0.1%; final test compound concentration: 2 μM). After 6 and 24 h of exposure, cells were isolated by removing the media followed by trypsinization. The trypsinized cells were washed with 9 ml PBS buffer (pH 7.4), scraped, and isolated by centrifugation (5 min, 3500 rpm). The obtained cell pellets were stored at -20 °C for further use. All experiments were carried out in triplicate.
Metal quantification in cell lysates by HRCS-AAS
Dry cell pellets were diluted with 400 μl of Milli-Q® water and lysed for 30 min in an ultrasonic bath (240 W, […]). For protein quantification. 20 μl of each sample was added to 200 μl of Bradford reagent (25 mg Serva Blue G (Sigma Aldrich) in 25 ml Ethanol 96%, 25 ml Milli-Q® water and 50 ml H3PO4 86%, stored at -20 °C and freshly diluted 1+4 with Milli-Q® water prior to use) and incubated on a 96-well plate while shaking at room temperature for 30 min and measured by a Perkin Elmer Victor X4 plate reader at a wavelength of 595 nm. The measurements were performed in duplicate, and the mean was used to calculate the protein content. For a standard calibration curve, bovine serum albumin (Sigma Aldrich) was used in graded concentrations.
The gold quantification was performed using a high-resolution continuum source atomic absorption spectrometer ContrAA® 700 (Analytik Jena AG). A pure sample of the respective complex 5c was used as standard, and calibration was done in a matrix-matched manner (meaning all samples and standards were adjusted to a protein concentration of 1 mg/ml by dilution with Milli-Q® water). The calibration and samples were measured in duplicate. The final cellular gold concentrations were calculated from data obtained in three independent experiments and are expressed as pmol of metal per mg of cell protein. Sample preparation: Triton-X 100 (1%, 20 μl) and ascorbic acid (1%, 20 μl) were added to each calibration standard or probe (200 μl). A volume of 20 μl was injected into a coated standard graphite tube (Analytik Jena AG) and thermally processed as previously described.[10] The gold amount was analyzed at a wavelength of 242.79 nm.

Which IC50 [1] does the source give for Cn1cc(C(=O)O)[n+](C)[c]1[Au-]([Cl])([Cl])[c]1n(C)cc(C(=O)O)[n+]1C.[Cl-] [5a] here?
Its IC50 is > 100 µM.

And the IC50 [2]?
Its IC50 is > 100 µM.

And the IC50 [3]?
Its IC50 is > 100 µM.

What about the IC50 [4] of the same molecule?
The IC50 was > 100 µM.

And the “MIC, E. faecium” value [5]?
The value was > 100 µM.

And the “MIC, K. pneumoniae” value [6]?
Its value is > 100 µM.

And the “Gold uptake (cellular gold content)” value (A549 cells; 6 h, 37 °C)?
The value was “low gold uptake”.

For COC(=O)c1cn(C)[c]([Au-]([Cl])([Cl])[c]2n(C)cc(C(=O)OC)[n+]2C)[n+]1C.O=S(=O)([O-])C(F)(F)F [5b], which IC50 [1] is on record?
The IC50 was 3.35 µM.

And the IC50 [2]?
The IC50 was 18.6 µM.

And the IC50 [3]?
The IC50 was 20 µM.

What about the IC50 [4] of the same molecule?
The IC50 was 14.8 µM.

What about the “MIC, E. faecium” value [5] of the same molecule?
Its value is > 100 µM.

What about the “MIC, K. pneumoniae” value [6] of the same molecule?
The value was > 100 µM.

What about the “Gold uptake (cellular gold content)” value (A549 cells; 6 h, 37 °C) of the same molecule?
The value was “higher degree of gold uptake”.

And the “Gold uptake (cellular gold content)” value (A549 cells; 24 h compared with 6 h)?
The value was “decreased significantly”.

CCOC(=O)c1cn(C)[c]([Au-]([Cl])([Cl])[c]2n(C)cc(C(=O)OCC)[n+]2C)[n+]1C.F[B-](F)(F)F [5c] was tested. Which IC50 [1] did it give?
The IC50 was 0.89 µM.

What about the IC50 [2] of the same molecule?
Its IC50 is 4.29 µM.

What about the IC50 [3] of the same molecule?
Its IC50 is 3.91 µM.

What about the IC50 [4] of the same molecule?
Its IC50 is 2.33 µM.

What about the “MIC, E. faecium” value [5] of the same molecule?
The value was > 100 µM.

What about the “MIC, K. pneumoniae” value [6] of the same molecule?
The value was > 100 µM.

And the “Gold uptake (cellular gold content)” value (A549 cells; 6 h, 37 °C)?
The value was “higher degree of gold uptake”.

What about the “Gold uptake (cellular gold content)” value (A549 cells; 24 h compared with 6 h) of the same molecule?
The value was “decreased significantly”.
